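96-well plates; 48 h exposure; 5 concentrations. Endpoints by linear interpolation between flanking doses. Not reached: highest tested concentration assigned. The concentration for 50% growth inhibition is given as GI50.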 Activity calls are given as the source filed them. Rule as the data show it: active = GI50 up to about 1.1 µM and inactive = higher.
What was measured:
Experiment in all cases: NCI tumour cell line growth inhibition, 48 h
DLD-1 = tested on: DLD-1
DMS-114 = tested on: DMS-114
HOP-18 = tested on: HOP-18
KM-20L2 = tested on: KM-20L2
LXFL 529 = tested on: LXFL 529
RXF 631 = tested on: RXF 631
SNB-78 = tested on: SNB-78
XF498 = tested on: XF498
DMS-273 = tested on: DMS-273

Measured: GI50

Nc1ccn(CCNCCn2cnc3nc(N)[nH]c(=O)c32)c(=O)n1
inactive: DLD-1 > 100 µM | DMS-114 > 100 µM | HOP-18 > 100 µM | KM-20L2 > 100 µM | LXFL 529 > 100 µM | RXF 631 > 100 µM | SNB-78 > 100 µM | XF498 > 100 µM

Oc1ccc2c(O)cc(-c3ccccc3)nc2c1
inactive: DLD-1 18.3 µM | DMS-114 18.7 µM | DMS-273 28.1 µM | HOP-18 26.2 µM | KM-20L2 19.9 µM | LXFL 529 26.5 µM | RXF 631 30.5 µM | SNB-78 48 µM | XF498 25.1 µM

CCOP(=O)(OCC)C(C(=O)OC)C(=O)C(=O)Nc1cccc([N+](=O)[O-])c1 (configuration not stated)
inactive: DLD-1 > 100 µM | DMS-114 > 100 µM | DMS-273 > 100 µM | HOP-18 > 100 µM | KM-20L2 > 100 µM | LXFL 529 > 100 µM | RXF 631 > 100 µM | SNB-78 > 100 µM | XF498 > 100 µM

Cc1ccc([N+](=O)[O-])cc1NC(=O)C(=O)Cc1nc2ccc(C(=O)c3ccccc3)cc2nc1O
inactive: DLD-1 > 100 µM | DMS-114 90.6 µM | DMS-273 > 100 µM | HOP-18 > 100 µM | KM-20L2 > 100 µM | LXFL 529 > 100 µM | RXF 631 > 100 µM | XF498 > 100 µM

Cc1c(Cl)ccc2c1NC(=O)C2(O)CC(=O)c1ccc2ccccc2c1 (configuration not stated)
inactive: DLD-1 79.8 µM | DMS-114 21.1 µM | HOP-18 > 100 µM | KM-20L2 69 µM | RXF 631 57.1 µM | XF498 > 100 µM

C[n+]1c2n(c3nc(N)[nH]c(=O)c31)C1OC(C2)C(O)C1O (configuration not stated)
inactive: DLD-1 > 100 µM | DMS-114 > 100 µM | DMS-273 > 100 µM | HOP-18 > 100 µM | KM-20L2 > 100 µM | LXFL 529 > 100 µM | RXF 631 > 100 µM | SNB-78 > 100 µM | XF498 > 100 µM

CC(C)(C)C(C#N)(C#N)c1ccc(C(C#N)(C#N)C(C)(C)C)nn1
inactive: DLD-1 > 100 µM | DMS-114 > 100 µM | DMS-273 > 100 µM | KM-20L2 > 100 µM | LXFL 529 > 100 µM | RXF 631 > 100 µM | SNB-78 74.8 µM | XF498 38.6 µM

From ChEMBL document CHEMBL1201862, “PubChem BioAssay data set” (2004)
